Measurements reported in patent publication US20250282799A1, “SUBSTITUTED PYRIDO[4,3-d]PYRIMIDINES AS KRAS MODULATORS” (Alterome Therapeutics, Inc., priority 2023, published 2025).

test system: KRAS G12V dependent lung adenocarcinoma cell line, NCI-H441; test: Cellular pERK (Thr202/Tyr204) FRET/HTRF assay; assay type: cell-based; conditions: Homo sapiens, NCI-H441, cellular pERK (Thr202/Tyr204) HTRF, NCI-H441 cells
Method in brief: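 NCI-H441, overnight plating → cpd 1 hr, 37 °C/5% CO2; DMSO neg ctrl. Lyse (phosphatase inhibitors), add donor/acceptor Abs, RT incubation, HTRF read. IC50 by curve fit.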

IC50 [nM]	Compound
< 50	C#Cc1c(F)ccc2cc(N)cc(-c3ncc4c(N5CCCC[C@H]6[C@H](F)[C@H]65)nc(OC[C@]56C/C(=C\F)CN5CCC65CC5)nc4c3F)c12 [Example 403, 5-Ethynyl-6-fluoro-4-(8-fluoro-4-((1S,7R,8S)-8-fluoro-2-azabicyclo[5.1.0]octan-2-yl)-2-(((R,E)-6′-(fluoromethylene)tetrahydrospiro[cyclopropane-1,1′-pyrrolizin]-7a′(5′H)-yl)methoxy)pyrido[4,3-d]pyrimidin-7-yl)naphthalen-2-amine]
< 50	C#Cc1c(F)ccc2cc(N)cc(-c3ncc4c(N5CCOC[C@H]6[C@H](F)[C@H]65)nc(OC[C@]56CC(=C)CN5CCC65CC5)nc4c3F)c12 [Example 171, 5-Ethynyl-6-fluoro-4-(8-fluoro-4-((1S,7S,8S)-8-fluoro-5-oxa-2-azabicyclo[5.1.0]octan-2-yl)-2-(((R)-6′-methylenetetrahydrospiro[cyclopropane-1,1′-pyrrolizin]-7a′(5′H)-yl)methoxy)pyrido[4,3-d]pyrimidin-7-yl)naphthalen-2-amine]
< 50	C#Cc1c(F)ccc2cccc(-c3ncc4c(N5CCCC[C@H]6[C@H](F)[C@H]65)nc(OC[C@]56C/C(=C\F)CN5CCC65CC5)nc4c3F)c12 [Example 377, (R,E)-7a′-(((7-(8-ethynyl-7-fluoronaphthalen-1-yl)-8-fluoro-4-((1S,7R,8S)-8-fluoro-2-azabicyclo[5.1.0]octan-2-yl)pyrido[4,3-d]pyrimidin-2-yl)oxy)methyl)-6′-(fluoromethylene)hexahydrospiro[cyclopropane-1,1′-pyrrolizine]]
< 50	[2H]C([2H])([2H])Oc1c(F)c(F)c(F)c2cc(N)cc(-c3ncc4c(N5CCOC[C@H]6[C@H](F)[C@H]65)nc(OC[C@@]56CCCN5C/C(=C\F)C6)nc4c3F)c12 [Example 133, 6,7,8-trifluoro-4-(8-fluoro-4-((1S,7S,8S)-8-fluoro-5-oxa-2-azabicyclo[5.1.0]octan-2-yl)-2-(((S,Z)-2-(fluoromethylene)tetrahydro-1H-pyrrolizin-7a(5H)-yl)methoxy)pyrido[4,3-d]pyrimidin-7-yl)-5-(methoxy-d3)naphthalen-2-amine]
< 50	[2H]C([2H])([2H])Oc1c(F)cc(F)c2cc(N)cc(-c3ncc4c(N5CCOC[C@H]6[C@H](F)[C@H]65)nc(OC[C@@]56CCCN5C/C(=C\F)C6)nc4c3F)c12 [Example 172, 6,8-difluoro-4-(8-fluoro-4-((1S,7S,8S)-8-fluoro-5-oxa-2-azabicyclo[5.1.0]octan-2-yl)-2-(((S,Z)-2-(fluoromethylene)tetrahydro-1H-pyrrolizin-7a(5H)-yl)methoxy)pyrido[4,3-d]pyrimidin-7-yl)-5-(methoxy-d3)naphthalen-2-amine]
< 50	[2H]C([2H])(Oc1nc(N2CCOC[C@H]3[C@H](F)[C@H]32)c2cc(C#N)c(-c3cc(N)cc4ccc(F)c(C#C)c34)c(C)c2n1)[C@@]12CCCN1C[C@H](F)C2 [Example 422, 7-(3-amino-8-ethynyl-7-fluoronaphthalen-1-yl)-4-((1S,7S,8S)-8-fluoro-5-oxa-2-azabicyclo[5.1.0]octan-2-yl)-2-(((2R,7aS)-2-fluorotetrahydro-1H-pyrrolizin-7a(5H)-yl)methoxy-d2)-8-methylquinazoline-6-carbonitrile]
50 to 500	C=C1CN2CCC[C@@]2(COc2nc(N3CCCC[C@H]4[C@H](F)[C@H]43)c3cnc(-c4cc(N)c(F)c(C)c4C(F)(F)F)c(F)c3n2)C1 [Example 392, 2-fluoro-5-(8-fluoro-4-((1S,7R,8S)-8-fluoro-2-azabicyclo[5.1.0]octan-2-yl)-2-(((S)-2-methylenetetrahydro-1H-pyrrolizin-7a(5H)-yl)methoxy)pyrido[4,3-d]pyrimidin-7-yl)-3-methyl-4-(trifluoromethyl)aniline]
50 to 500	[2H]C([2H])(Oc1nc(N2CCOC[C@H]3[C@H](F)[C@H]32)c2cnc(-c3cc(NC(C)=O)cc4ccc(F)c(C#C)c34)c(F)c2n1)[C@@]12CCCN1C[C@H](F)C2 [Example 263, N-(5-ethynyl-6-fluoro-4-(8-fluoro-4-((1S,7S,8S)-8-fluoro-5-oxa-2-azabicyclo[5.1.0]octan-2-yl)-2-(((2R,7aS)-2-fluorotetrahydro-1H-pyrrolizin-7a(5H)-yl)methoxy-d2)pyrido[4,3-d]pyrimidin-7-yl)naphthalen-2-yl)acetamide]
< 50	[2H]C([2H])(F)Oc1c(F)ccc2cccc(-c3ncc4c(N5CCOC[C@H]6[C@H](F)[C@H]65)nc(OC[C@@]56CCCN5CC(=C)C6)nc4c3F)c12 [Example 145, (1S,7S,8S)-8-fluoro-2-(8-fluoro-7-(7-fluoro-8-(fluoromethoxy-d2)naphthalen-1-yl)-2-(((S)-2-methylenetetrahydro-1H-pyrrolizin-7a(5H)-yl)methoxy)pyrido[4,3-d]pyrimidin-4-yl)-5-oxa-2-azabicyclo[5.1.0]octane]
< 50	[2H]C([2H])(Oc1nc(N2CCOC[C@H]3[C@H](F)[C@H]32)c2cnc(-c3cc(N)cc4ccc(C)c(C#C)c34)c(F)c2n1)[C@@]12CCCN1[C@H](C)[C@H](F)C2 [Example 410, 5-ethynyl-4-(8-fluoro-2-(((2R,3R,7aS)-2-fluoro-3-methyltetrahydro-1H-pyrrolizin-7a(5H)-yl)methoxy-d2)-4-((1S,7S,8S)-8-fluoro-5-oxa-2-azabicyclo[5.1.0]octan-2-yl)pyrido[4,3-d]pyrimidin-7-yl)-6-methylnaphthalen-2-amine]
500 to 10000	Nc1cc(Cl)c(C(F)(F)F)c(-c2ncc3c(N4CCCC[C@@H]5[C@@H](F)[C@@H]54)nc(OC[C@@]45CCCN4CC(=C(F)F)C5)nc3c2F)c1 [Example 370, 3-chloro-5-(2-(((S)-2-(difluoromethylene)tetrahydro-1H-pyrrolizin-7a(5H)-yl)methoxy)-8-fluoro-4-((1R,7S,8R)-8-fluoro-2-azabicyclo[5.1.0]octan-2-yl)pyrido[4,3-d]pyrimidin-7-yl)-4-(trifluoromethyl)aniline]
500 to 10000	[2H]C([2H])(Oc1nc(N2CCOC[C@H]3[C@H](F)[C@H]32)c2cc(F)c(-c3cc(N)cc(C)c3C(F)(F)F)c(F)c2n1)[C@@]12CCCN1C[C@H](F)C2 [Example 169, 3-(6,8-difluoro-4-((1S,7S,8S)-8-fluoro-5-oxa-2-azabicyclo[5.1.0]octan-2-yl)-2-(((2R,7aS)-2-fluorotetrahydro-1H-pyrrolizin-7a(5H)-yl)methoxy-d2)quinazolin-7-yl)-5-methyl-4-(trifluoromethyl)aniline]

same assay, conditions: Homo sapiens, NCI-H441, cellular pERK HTRF, NCI-H441 (KRAS G12V) cells

IC50 [nM]	Compound
< 50	[2H]C([2H])(Oc1nc(N2CCCC[C@H]3[C@H](F)[C@H]32)c2cnc(-c3cc(O)cc4ccc(F)c(C#C)c34)c(C)c2n1)[C@@]12CCCN1[C@H](C)[C@H](F)C2 [Example 473, 5-ethynyl-6-fluoro-4-(2-(((2R,3R,7aS)-2-fluoro-3-methyltetrahydro-1H-pyrrolizin-7a(5H)-yl)methoxy-d2)-4-((1S,7R,8S)-8-fluoro-2-azabicyclo[5.1.0]octan-2-yl)-8-methylpyrido[4,3-d]pyrimidin-7-yl)naphthalen-2-ol]
< 50	[2H]C([2H])(Oc1nc(N2CCOC[C@H]3[C@H](F)[C@H]32)c2cnc(-c3cc(O)cc4ccc(F)c(C#C)c34)c(F)c2n1)[C@@]12CCCN1[C@H](C)[C@H](F)C2 [Example 472, 5-ethynyl-6-fluoro-4-(8-fluoro-2-(((2R,3R,7aS)-2-fluoro-3-methyltetrahydro-1H-pyrrolizin-7a(5H)-yl)methoxy-d2)-4-((1S,7S,8S)-8-fluoro-5-oxa-2-azabicyclo[5.1.0]octan-2-yl)pyrido[4,3-d]pyrimidin-7-yl)naphthalen-2-ol]
< 50	C#Cc1c(F)ccc2cc(N)cc(-c3ncc4c(N5CCOC[C@H]6[C@H](F)[C@H]65)nc(OCC56CCN5CC(F)(F)C6)nc4c3F)c12 (stereo partly drawn) [Example 476, 4-(2-((3,3-difluoro-1-azabicyclo[3.2.0]heptan-5-yl)methoxy)-8-fluoro-4-((1S,7S,8S)-8-fluoro-5-oxa-2-azabicyclo[5.1.0]octan-2-yl)pyrido[4,3-d]pyrimidin-7-yl)-5-ethynyl-6-fluoronaphthalen-2-amine]

same assay, conditions: Homo sapiens, NCI-H441, pERK HTRF, NCI-H441 cells (KRAS G12V)

IC50 [nM]	Compound
50 to 500	[2H]C([2H])(Oc1nc(N2CCOC[C@H]3C[C@H]32)c2cnc(-c3ccc(F)c4sc(N)c(C#N)c34)c(F)c2n1)[C@@]12CCCN1C[C@H](F)C2 [Example 48, 4-(4-((1R,7S)-5-Oxa-2-azabicyclo[5.1.0]octan-2-yl)-8-fluoro-2-(((2R,7aS)-2-fluorotetrahydro-1H-pyrrolizin-7a(5H)-yl)methoxy-d2)pyrido[4,3-d]pyrimidin-7-yl)-2-amino-7-fluorobenzo[b]thiophene-3-carbonitrile]
< 50	[2H]C([2H])(Oc1nc(N2CCOC[C@H]3[C@H](F)[C@H]32)c2cnc(-c3cc(N)cc4c(F)c(F)c(F)c(C#C)c34)c(F)c2n1)[C@@]12CCCN1C[C@H](F)C2 [Example 93, 5-Ethynyl-6,7,8-trifluoro-4-(8-fluoro-4-((1S,7S,8S)-8-fluoro-5-oxa-2-azabicyclo[5.1.0]octan-2-yl)-2-(((2R,7aS)-2-fluorotetrahydro-1H-pyrrolizin-7a(5H)-yl)methoxy-d2)pyrido[4,3-d]pyrimidin-7-yl)naphthalen-2-amine]

same assay, conditions: cellular pERK HTRF, NCI-H441 (KRAS G12V) cells

IC50 [nM]	Compound
< 50	[2H]C([2H])(Oc1nc(N2CCOC[C@H]3[C@H](F)[C@H]32)c2cc(F)c(-c3ccc(F)c4sc(N)c(C#N)c34)c(C)c2n1)[C@@]12CCCN1C[C@H](F)C2 (atropisomer, axis not shown; (aS)) [Example 451, 2-amino-7-fluoro-4-((R)-6-fluoro-4-((1S,7S,8S)-8-fluoro-5-oxa-2-azabicyclo[5.1.0]octan-2-yl)-2-(((2R,7aS)-2-fluorotetrahydro-1H-pyrrolizin-7a(5H)-yl)methoxy-d2)-8-methylquinazolin-7-yl)benzo[b]thiophene-3-carbonitrile]
